Test results published in patent US10053422B2, “Compounds for the treatment of mTOR pathway related diseases” (Pitney Pharmaceuticals Pty Limited, priority 2012, dated 2018).
“Also recorded” adds a separate entry of the source. Where two headings read alike, the source gives them in different places.

Tests used:
[1] = tested on: A2780 cells; assay: SRB cell proliferation assay, A2780; format: cell-based, human
Protocol: (§1) Cell proliferation was assessed using the sulforhodamine B (SRB) assay. Cells seeded in 96-well plate (2,000-3,000 cell/well) were treated with MPL (0, 1, 5, 10, 25, 50 and 100 μmol/L) for 72 h. Cells were then fixed, washed and stained with 100 μl of 0.4% (w/v) SRB dissolved in 1% acetic acid. Unbound dye was removed by five washes with 1% acetic acid before air drying. Bound SRB was solubilized with 100 μl of 10 mM Tris base (pH 10.5) and the absorbance read at 570 nm. Exactly the same procedure was used to assess MPL-SO2. Both agents were dissolved in ethanol and diluted with media to give the final concentrations required for cell culture assays.

[2] = tested on: SKOV-3 cells; assay: SRB cell proliferation assay, SKOV-3; format: cell-based; details: Homo sapiens, SK-OV-3
Protocol: as §1

[3] = tested on: IGROV-1 cells; assay: SRB cell proliferation assay, IGROV-1; format: cell-based; details: Homo sapiens
Protocol: as §1

[4] = tested on: 1A9 cells; assay: SRB cell proliferation assay, 1A9; format: cell-based; details: Homo sapiens
Protocol: as §1

[5] = tested on: CHO (Chinese hamster ovarian cells); assay: SRB cell proliferation assay, CHO; format: cell-based; details: Cricetulus griseus; CHO = Chinese hamster ovarian cells (Table 3); read-out: IC50 μM CHO
Protocol: as §1

[6] = tested on: OVCAR-3 or A2780 cells; assay: Colony formation assay; format: cell-based, human
Protocol: FIG. 2A, FIG. 2B, and FIG. 2C show the effect of MPL on the colony formation activity of OVCAR-3 cells. Following incubation of cells with MPL (0, 5, 10 and 25 μmol/L) for 72 hours, cells were washed, transferred to agar plates, cultured with their regular growth medium and incubated under standard conditions for 2 weeks. Cells were then fixed with 100% methanol and stained with 1% crystal violet. Colonies (a cluster of cells greater than 50) were counted under a microscope (magnification ×5). The number of colonies counted for different experimental groups is expressed as a percentage of the control.
Following incubation of cells with MPL (0, 5, 10, 25 μM) for 72 h, cells were washed and then transferred to agar plates, cultured with their regular growth medium and incubated under standard conditions for 2 weeks. Cells were then fixed with 100% methanol and stained with 1% crystal violet. Colonies (cluster of cells greater than 50) were counted under microscope (magnification ×5). Number of colonies counted for different experimental groups is expressed as % of control.
For colony formation assay, […], such as OVCAR-3 or A2780 cells, were plated in 100 mm Petri dishes and allowed to attach overnight. […] Colonies consisting of more than 50 cells were counted under an inverted microscope. […]

[7] = tested on: OVCAR-3 or A2780 cells; assay: Cellular ATP and ADP/ATP ratio; format: cell-based, human
Protocol: ADP and ATP levels in the media were measured using the commercial colorimetric/fluorometric assay kits from Abcam together with the ApoGlow assay kit from Lonza (Sydney, Australia subsidary). Each value represents mean+s.e.m. of at least two determinations.

[8] = tested on: A2780 ovarian cancer cells; assay: Autophagy (vacuole formation), A2780; format: cell-based, human
From the text: (§2) Autophagy is a characteristic of mTOR inhibition.

[9] = tested on: U87 glioma cells; assay: Autophagy (vacuoles, LC3-II), U87; format: cell-based; details: chemo-resistant U87 glioma cells, concentration-dependent
From the text: as §2
Concentration-dependent conversion of LC3-I to LC3-II confirms the increasing phenomenon of autophagy in these cells.

[10] = tested on: c-Myc and cyclin D1; assay: Western blot of c-Myc and cyclin D1 in OVCAR-3 cells; format: cell-based, human; details: 0, 5, 10, 15 and 25 μM MPL for 48 hours
Protocol: In further experiments, after treatment with the indicated concentrations of MPL, cell lysates were prepared and probed with antibodies for c-Myc, cyclin D1, cyclin E, cdk2, cdk4, IGF-1R (Cell Signalling Technology), and (anta Cruz Biotechnology, Australia).

[11] = tested on: OVCAR-3 tumors; assay: s.c. OVCAR-3 xenograft growth in nude mice; format: in vivo, female nude mice
Protocol: 2.5 million log-phase growing OVCAR-3 cells were injected s.c. into the left flank of each mouse. Tumor growth was monitored by caliper measurements and tumor volumes were determined through measuring orthogonal diameters. Estimated tumor volume was calculated based on the formula ½ (Length×Width2), where width is the shorter of the two orthogonal measurements. Treatment was initiated 7 days post tumor cell injection before which, mice were randomized and assigned to treatment or the control group (6 per group). […] Control group were treated with the vehicle only.
Log-phase growing OVCAR-3 cells were injected s.c. into the left flank of each mouse. Tumor growth was monitored by caliper measurements and tumor volumes were determined through measuring orthogonal diameters. Estimated tumor volume was calculated based on the formula ½ (Length×Width2), where width is the shorter of the two orthogonal measurements. Treatment was initiated 7 days post tumor cell injection before which, mice were randomized and assigned to treatment or the control group (6 per group). […] Control group were treated with the vehicle only.
OVCAR-3 cells were injected s.c. into the left flank of each mouse. Tumor growth was monitored by caliper measurements and tumor volumes were determined of orthogonal diameters, and the estimated tumor volume was calculated based on the formula ½ (Length×Width2), where width is the shorter of the two orthogonal measurements. Treatment was initiated 7 days post tumor cell injection before which, mice were randomized and assigned to treatment or the control group (6 per group). […] Control group were treated orally with the vehicle only.
Mice were inoculated in the left flank with 2.5 million log-phase growing human OVCAR-3 cells. Tumor growth was monitored by caliper measurements and tumor volumes were determined through measuring orthogonal diameters. Estimated tumor volume was calculated based on the formula ½ (Length×Width2), where width is the shorter of the two orthogonal measurements. Treatment was initiated 7 days post tumor cell injection before which, mice were randomized and assigned to treatment or the control group (5-6 per group).
Female nude mice (6 weeks old) were purchased from Biological Resources (Faculty of Medicine, University of New South Wales). An institutional animal ethics approval covered all procedures carried out on mice. […] Animals were weighed once weekly while their tumor volumes were determined twice weekly. Tumor growth was monitored by caliper measurements of orthogonal diameters, and the estimated tumor volume was calculated based on the formula ½ (Length×Width^2), where width is the shorter of the two orthogonal measurements. Based on institutional ethics approval, mice were euthanized before the tumor volume reached 500 mm^3. Treatment was initiated on day 8 after tumor cell injection when mice were randomized and assigned to treatment or the control group (6 per group). Monepantel was suspended in sterile 0.5% (w/v) hydroperoxymethyl cellulose (HPMC). Drug was administered i.p. 3 times weekly at 25 or 50 mg/kg. Control group was treated with sterile vehicle (0.5% HPMC). Mice were treated for a period of 3 weeks. Twenty four hours post-last drug administration, mice were euthanized and their tumors excised and frozen at −80° C. until analysis.
In alternative experiments, treatment was initiated on day 8 post tumor cell inoculation when mice were randomized and assigned to one of MPL or vehicle treated groups (5-6 mice per group). MPL was suspended in hydroperoxy methylcellulose (0.5% w/v HPMC), sterilized by sonnicator and administered every other day either intraperitoneally (i.p) or orally as gavage (100 μL).

[12] = cited from earlier work

Compound `C[C@](C#N)(COc1cc(C#N)ccc1C(F)(F)F)NC(=O)c1ccc(SC(F)(F)F)cc1` [MPL, N-[(1S)-1-Cyano-2-(5-cyano-2-trifluoromethyl-phenoxy)-1-methyl-ethyl]-4-trifluoromethylsulfanyl-benzamide] has an IC50 ([1]; A2780, human epithelial ovarian cancer (Table 3), read-out: IC50 μM A2780) of 11.3 ± 0.9 µM, an IC50 ([1]; Homo sapiens, A2780, ovarian cancer, 72 h, SRB assay (Table 1), read-out: IC50) of 10 µM and an IC50 ([2]; SKOV-3, ovarian cancer (Table 2), read-out: IC50 in suppressing proliferation) of 31.2 ± 0.76 µM. It also gave an IC50 ([2]; SKOV-3, ovarian cancer, 72 h, SRB assay (Table 1), read-out: IC50) of 29.3 µM, an IC50 ([3]; IGROV-1, ovarian cancer (Table 2), read-out: IC50 in suppressing proliferation) of 4.4 ± 0.27 µM and an IC50 ([3]; IGROV-1, ovarian cancer, 72 h, SRB assay (Table 1), read-out: IC50) of 6.1 µM. The IC50 ([4]; 1A9, ovarian cancer (Table 2), read-out: IC50 in suppressing proliferation) was 2.5 ± 0.45 µM, the IC50 ([4]; 1A9, ovarian cancer, 72 h, SRB assay (Table 1), read-out: IC50) was 1.8 µM and the IC50 [5] was 34.6 µM. For the same compound, the colony formation ([6]; 72 h exposure (0, 5, 10, 25 μM), then 2 weeks drug free) was “profoundly hinders colony formation; also recorded: concentration-dependent inhibition of colony formation”, the “clonogenic ability at higher concentrations” value ([6]; higher concentrations of MPL, 72 h exposure) was “almost complete loss of clonogenic ability” and the “cellular ATP levels” value [7] was “reduction in ATP levels”. For the same compound, the “formation of vacuoles (autophagy)” value [8] was “formation of vacuoles”, the “expression of LC3-II (autophagy)” value [9] was “increased expression of LC3-II” and the “c-Myc and cyclin D1 expression” value [10] was “down-regulation of c-Myc and cyclin D1 expression”. The “tumor growth, initial trial” value ([11]; 25 mg/kg i.p., three times weekly (trial with 2.5 or 25 mg/kg)) was “particularly effective”, the tumor growth ([11]; 50 mg/kg dose (both i.p. and oral), three times weekly) was “profoundly retarding tumor growth” and the “tumor growth, second trial” value ([11]; 50 mg/kg i.p. (trial with 25 and 50 mg/kg)) was “more effective in retarding tumor growth”. The “doses at which anticancer effects are observed in animal models” value ([11]; animal models) was 5 to 50 mg/kg, the tumor histology ([11]; tumor tissue from the in vivo trials) was “massive areas of tumor cell death; also recorded: extensive necrosis” and the clinical tolerance ([12]; 1000 mg of MPL per kg of body weight per 24 hours, mammals) was “well tolerated”. For the same compound, the “dose tolerated by animals when used as an anthelmintic” value ([12]; animals) was “up to 2000 mg/kg” and the single-dose toxicity ([12]; single dose) was > 2000 mg per kg of body weight.
